Laboratory results reported in patent US12678451B2, “Cannabinoid and omega fatty acid compositions and methods of using” (GreenWay Herbal Products, LLC, priority 2019, dated 2026).

Assays:
[1] = test system: cytokines induced in mice by LPS; assay: Mouse LPS cytokine model, Example 6D, ALA, DHA and EPA omega-3 samples; assay type: in vivo; conditions: 12.5 mg total omega fatty acids per mouse, DXM 0.01 mg per mouse
Method: (§1) A series of experiments using a mouse LPS cytokine animal model were performed. In the mouse LPS cytokine animal model, mice were injected with LPS, which induced the immune response shortly after the mice were injected with one of the potential anti-inflammatory compounds under evaluation (the “test compound”). The efficacy of the test compound was evaluated based on its ability to reduce expression levels of inflammatory cytokines that were elevated due to the immune response. The test compounds included a cannabinoid, an omega fatty acid, and a cannabinoid-omega fatty acid composition.
(§2) The mice were intraperitoneally injected with 0.1 mL of the test compound. One hour later, the mice were intraperitoneally injected with 0.1 mL of LPS in phosphate buffered saline (PBS). Four hours later, a heart puncture was performed and the blood was allowed to clot to generate serum. 0.1 mL of the serum was diluted 1:2 with PBS and stored at −80° C. The serum was then sent to a laboratory where a mouse cytokine array/chemokine array 31-plex (MD31) analysis was performed that analyzed the expression levels of the 32 cytokines/chemokines listed in Table 9, above.
(§3) For each considered test compound, the ability of the test compound to suppress each inflammatory cytokine was calculated by determining the percent suppression.
36 female C57BL/6 mice that weighed approximately 20 g each were obtained and allowed to acclimate for one week after arrival with unlimited access to food and water. On the day of the study, the mice were weighed and split into eight groups of four mice each so that the average weight of each group was as close as possible to each other.
All of the omega fatty acid samples that were tested were diluted so the dose was 12.5 mg of total omega fatty acids per mouse. […] The omega fatty acids samples tested included: (1) pollock oil, 456 mg/mL omega unsaturated fatty acids. The pollock oil contained a mixture of anti-inflammatory omega-3, omega-7 and omega-9 unsaturated fatty acids. […] (2) Flaxseed oil, 656 mg/mL anti-inflammatory omega unsaturated fatty acids. The flaxseed oil contained a mixture of anti-inflammatory omega-3 and omega-9 unsaturated fatty acids. The omega-3 and omega-9 unsaturated fatty acids constituted 77.6% and […], respectively, of the anti-inflammatory omega fatty acids contained in the flaxseed oil. A 12.5 mg dose contained 9.7 mg of ALA in the triglyceride form. (3) Mono 2:1 DHA:EPA, 744 mg/mL omega-3 unsaturated fatty acids that were primarily DHA or EPA. A 12.5 mg dose contained 7.81 mg of DHA and 3.91 mg of EPA. The omega-3 unsaturated fatty acids were in the free mono form. […] A 12.5 mg dose contained 3.85 mg of DHA and 7.69 mg of EPA. The omega-3 unsaturated fatty acids were in the free mono form. (5) Tri 2:1 DHA:EPA, 678.9 mg/mL omega-3 unsaturated fatty acids that were primarily DHA or EPA. A 12.5 mg dose contained 7.88 mg of DHA and 3.94 mg of EPA. The omega-3 unsaturated fatty acids were in the triglyceride form. (6) Tri 1:2 DHA:EPA, 678.9 mg/mL omega-3 unsaturated fatty acids that were primarily DHA or EPA. A 12.5 mg dose contained 3.60 mg of DHA and 7.19 mg of EPA. The omega-3 unsaturated fatty acids were in the triglyceride form.

[2] = test system: cytokines induced in mice by LPS; assay: Mouse LPS cytokine model, Example 6A Study 3, 1:1 CBD:CBDA in MCT oil; assay type: in vivo; conditions: 0.5 mg/kg
Method: as §1, §2, §3
32 female C57BL/6 mice that weighed approximately 20 g each were allowed to acclimate for one week with unlimited access to food and water. On the day of the study, the mice were weighed and split into eight groups of four mice each so that the average weight of each group was as close as possible to each other.
The 1:1 CBD:CBDA test compounds were dosed at 5 mg/kg or 0.1 mg per 20 g mouse, 1.67 mg/kg or 0.033 mg per 20 g mouse, 0.5 mg/kg or 0.01 mg per 20 g mouse, 0.167 mg/kg or 0.0033 mg per 20 g mouse and 0.05 mg/kg or 0.001 mg per 20 g mouse. The test compounds were prepared as 1 mg/mL, 0.33 mg/mL, 0.1 mg/mL, 0.033 mg/mL and 0.01 mg/mL solutions in MCT oil for a 0.1 mL injection. […] The LPS was dosed at 0.1 mg/kg or 0.002 mg per 20 g mouse. The LPS was prepared as a 0.02 mg/mL solution in PBS for a 0.1 mL injection.

Compound: C[C@@H]1C[C@H]2[C@@H]3CCC4=CC(=O)C=C[C@]4(C)[C@@]3(F)[C@@H](O)C[C@]2(C)[C@@]1(O)C(=O)CO [Dexamethasone, dexamethasone]
- AVERAGE SUPPRESSION [1]: 43.34%
- Eotaxin suppression [1]: 24.14%
- IL-6 suppression [1]: 76.02%
- IL-10 suppression [1]: 47.30%
- IP-10 suppression [1]: 41.65%
- KC suppression [1]: 56.41%
- MCP-1 suppression [1]: 54.99%
- MIG suppression [1]: 25.46%
- MIP-1α suppression [1]: 55.47%
- MIP-1β suppression [1]: 48.33%
- RANTES suppression [1]: 39.58%
- AVERAGE SUPPRESSION ([1]; listed as DXM): 43.34%
- AVERAGE SUPPRESSION ([1]; listed as dexamethasone): 43.34%
- AVERAGE SUPPRESSION [2]: 34.65%
- Eotaxin suppression [2]: 55.51%
- IFNγ suppression [2]: 14.14%
- IL-1β suppression [2]: 61.12%
- IL-2 suppression [2]: −15.63%
- IL-6 suppression [2]: 78.65%
- IL-7 suppression [2]: 12.53%
- IL-9 suppression [2]: 5.23%
- IL-10 suppression [2]: 46.83%
- IL-12 p70 suppression [2]: −46.46%
- IL-12β p40 suppression [2]: 29.69%
- IL-13 suppression [2]: 21.00%
- IL-17 suppression [2]: 53.81%
- IP-10 suppression [2]: 38.48%
- KC suppression [2]: 86.96%
- LIF suppression [2]: 35.14%
- MCP-1 suppression [2]: 69.72%
- MIG suppression [2]: 37.08%
- MIP-1α suppression [2]: 48.38%
- MIP-1β suppression [2]: 32.24%
- MIP-2 suppression [2]: 41.28%
- RANTES suppression [2]: 32.46%
- TNF-α suppression [2]: 53.09%
- VEGF suppression [2]: 66.07%
